# In ChEMBL document CHEMBL3507680, “University of Dundee, Gates Library screen for HepG2 cell viability”:
# Experiment: Human HepG2 cell viability assay in 384 well format
# Format: toxicity, cell-based
# Set-up: dose 125 nL, time 70.5 hour; concentration not given beside the values
# Settings: HepG2 cells, read-out: Inhibition
row,SMILES,cytotoxicity at 70.5 h [%]
1,O=C(NCc1nnc2n1C(C(=O)NC1CC1)CC2)c1ccc(Cl)cc1Cl (stereo unspecified),4.24
2,CN1CCO[C@@H]2CN(S(=O)(=O)c3ccc(F)cc3)CC[C@@H]2C1,-1.86
3,CS(=O)(=O)N1CC[C@H]2O[C@H](C(=O)NCCc3ccccn3)CC[C@H]21,-9.62
4,Cc1ocnc1C(=O)N[C@H]1CN(CC2CCC2)C[C@@H]1C(C)C,-1.41
5,Cn1ccnc1CC1CCCN(C(=O)NCCOc2cccnc2)C1 (stereo unspecified),1.38
6,c1ccc2oc(N3CCCC3Cn3cncn3)nc2c1 (stereo unspecified),-3.56
7,CCC(C)(NCc1nnc(C(C)(C)C)o1)c1nccs1 (stereo unspecified),-0.157
8,CC[C@@H](C)[C@@H](N)C(=O)Nc1cccc(-c2cnc(NCCO)nc2)c1,-7.48
9,CCc1ccc2nc(-c3cnn(C)c3)cc(C(=O)N3CCCC3)c2c1,-5.34
10,CC(C)N1CCCC2(CCN(C(=O)CCCn3ccnc3)C2)C1=O (stereo unspecified),-12.1
11,COC(=O)NCCC(=O)NC(c1ccc(Cl)cc1)C(F)(F)F (stereo unspecified),-8.05
12,CC(C)C(NC(N)=O)C(=O)NCc1ccc(N2CCCC2)nc1 (stereo unspecified),-9.75
13,Cc1cc(CN2CC[C@H]3OCC[C@@]3(C(=O)NC(C)C)C2)no1,3.85
14,O=C(c1ccco1)N1CCc2ncnc(NCc3ccccn3)c2CC1,-8.48
15,COc1cccc(CN2CCC3(CC2)CCN(C(=O)[C@@H]2CCCO2)C3)c1,-8.83
16,CO[C@@H]1CC[C@@H](N(C)C(=O)c2cn3cc(C)ccc3n2)[C@H]1O,-9
17,Cc1nc(CNC(=O)Nc2c(C)n[nH]c2C)cs1,-9.25
18,CC(=O)N1CC(=O)N(c2ccsc2)CC12CCN(Cc1ccoc1)C2 (stereo unspecified),-11.1
19,CC(O)CN1CCN(C(=O)c2ccc(Br)o2)CC1 (stereo unspecified),-19.8

row,SMILES,cytotoxicity at 70.5 h [%]
1,CCn1nc2c(cc1=O)CN(CC(=O)Nc1cc(C(C)C)no1)CC2,-8.8
2,Cc1nc2c(c(NCCCN3CCOCC3)n1)CCN(C)C2,15.4
3,CC1CN(Cc2cccc(CNC3CCCC3)c2)CCO1 (stereo unspecified),12.8
4,CC(NC(=O)N(C)Cc1ccncc1)c1cn(-c2ccccc2)nn1 (stereo unspecified),4.1
5,Cc1nc[nH]c1CN1CCN(C(=O)C2(C)CC2)[C@H]2CS(=O)(=O)C[C@H]21,-11.5
6,Cc1ccc(C)c(-n2ncc(C(=O)NCC3COC(C)(C)O3)c2N)c1 (stereo unspecified),18.9
7,COC(=O)c1sccc1S(=O)(=O)NCC1(O)CCOc2ccccc21 (stereo unspecified),-4.94
8,CC(=O)Nc1ccc(Oc2ccc(CN3CCCC3)cc2F)cc1,-3.88
9,Cc1ncc(-c2ccccn2)c(CCNC(=O)CCC2CCCO2)n1 (stereo unspecified),3.67
10,CCN1C(=O)COC[C@@H]1[C@H](O)c1ccc(NC(=O)COC)cc1,11
11,Cc1noc(C)c1CCC(=O)N1CCCN(C)CC1,-3.68
12,O=C(COc1cccc(Cl)c1)N1CCOCC1c1ncon1 (stereo unspecified),13.9
13,CCS(=O)(=O)N1CC[C@@H]2[C@H](CC1)N(Cc1cccc(C)n1)CCS2(=O)=O,2.24
14,CSCc1cc(F)ccc1CNC(=O)N1CCOCC1,-10.7
15,N#Cc1c(CN2CCCC2Cn2cccn2)cn2ccccc12 (stereo unspecified),18.8
16,Cc1cc(C(=O)N2CCn3cc(CN4CCCCC4)nc3C2)no1,-9.93
17,Cc1cc(C)c2nc(CN3CCCC(c4cc[nH]n4)C3)cc(O)c2c1 (stereo unspecified),-2.87
18,CN1CCN(C(=O)c2cc3sccc3n2Cc2ccccc2Cl)CC1,-6.69
19,CCC1CN(C)c2ccccc2CN1CCn1cncn1 (stereo unspecified),-9.88

row,SMILES,cytotoxicity at 70.5 h [%]
1,O=C(CC1NC(N2CCc3ccccc32)=NC1=O)Nc1ccccc1 (stereo unspecified),-5.06
2,CCn1cc2c(n1)CN(Cc1ccc(C)o1)CC2COCC1CC1 (stereo unspecified),-5.09
3,Cc1cccc(C(=O)N2CCN(c3ccccc3F)CC2)n1,-7.27
4,CCN1C(=O)CCCC12CCCN(C(=O)c1ccoc1)C2 (stereo unspecified),-3.69
5,COCCn1cc(C(=O)N2CCCC2c2ccncc2)c2ccccc21 (stereo unspecified),-4.2
6,Cc1cc(C(=O)N2CCCC(C)C2)ccc1NCC(=O)N1CCOCC1 (stereo unspecified),-2.64
7,Cc1ncsc1C(=O)NCCSCc1cccs1,-1.32
8,COCCCN1CCC(N(Cc2noc(C)n2)C(C)=O)C1 (stereo unspecified),-5.67
9,CC(NC(=O)c1ccoc1)C(=O)N(C)Cc1ccc(O)cc1 (stereo unspecified),3.58
10,O=C(Nc1cn[nH]c1)N(CCCO)C1CCc2ccccc21 (stereo unspecified),-4.28
11,O=C(COc1ccc2c(c1)OCO2)NCc1ccco1,-5.95
12,N#Cc1cccc(CNC(=O)Nc2cccnc2N2CCCC2)c1,-1.72
13,Cc1cnc(NC2CCN(CC(=O)Nc3ccccc3)CC2)nc1C,2.9
14,O=C(Nc1ccc(I)cc1C(=O)NCCN1CCOCC1)c1cccs1,11.1
15,Cc1ccccc1C(NC(=O)NCC1(O)CCC1)C1CC1 (stereo unspecified),5.34
16,Cc1cccnc1CNC(=O)NC(C)Cc1c(C)nn(C)c1C (stereo unspecified),-5.5
17,COC(=O)[C@H]1C[C@@H](O)CCN1S(=O)(=O)c1cc(C)c(Cl)cc1C,0.229
18,CC(C)(C)c1c[nH]c([C@@H]2COCCN2C2CCNCC2)n1,-0.308
